Read-outs that look alike come from different tables or passages of the source.
Tests used:
Assay type in all cases: binding
[1] = biological target: T1, HeLa cell extract proteins (Homo sapiens, UniProt O00746)
T1 construct: endogenous in cells; host or cells: HeLa cell extract
T1 sequence (O00746 29-187): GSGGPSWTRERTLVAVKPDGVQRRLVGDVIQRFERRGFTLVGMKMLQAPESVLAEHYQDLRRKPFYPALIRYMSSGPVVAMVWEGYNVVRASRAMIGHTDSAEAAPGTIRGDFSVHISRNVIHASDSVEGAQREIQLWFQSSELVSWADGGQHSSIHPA

[2] = biological target: T2, HeLa cell extract proteins (Homo sapiens, UniProt O15260)
T2 construct: endogenous in cells; host or cells: HeLa cell extract

[3] = biological target: T3, HeLa cell extract proteins (Homo sapiens, UniProt P10599)
T3 construct: endogenous in cells; host or cells: HeLa cell extract
T3 sequence (P10599 1-105): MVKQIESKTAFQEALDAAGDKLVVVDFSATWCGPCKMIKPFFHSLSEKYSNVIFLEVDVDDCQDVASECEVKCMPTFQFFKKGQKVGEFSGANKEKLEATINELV

[4] = biological target: T4, HeLa cell extract proteins (Homo sapiens, UniProt P33991)
T4 construct: endogenous in cells; host or cells: HeLa cell extract
T4 sequence (P33991 1-863): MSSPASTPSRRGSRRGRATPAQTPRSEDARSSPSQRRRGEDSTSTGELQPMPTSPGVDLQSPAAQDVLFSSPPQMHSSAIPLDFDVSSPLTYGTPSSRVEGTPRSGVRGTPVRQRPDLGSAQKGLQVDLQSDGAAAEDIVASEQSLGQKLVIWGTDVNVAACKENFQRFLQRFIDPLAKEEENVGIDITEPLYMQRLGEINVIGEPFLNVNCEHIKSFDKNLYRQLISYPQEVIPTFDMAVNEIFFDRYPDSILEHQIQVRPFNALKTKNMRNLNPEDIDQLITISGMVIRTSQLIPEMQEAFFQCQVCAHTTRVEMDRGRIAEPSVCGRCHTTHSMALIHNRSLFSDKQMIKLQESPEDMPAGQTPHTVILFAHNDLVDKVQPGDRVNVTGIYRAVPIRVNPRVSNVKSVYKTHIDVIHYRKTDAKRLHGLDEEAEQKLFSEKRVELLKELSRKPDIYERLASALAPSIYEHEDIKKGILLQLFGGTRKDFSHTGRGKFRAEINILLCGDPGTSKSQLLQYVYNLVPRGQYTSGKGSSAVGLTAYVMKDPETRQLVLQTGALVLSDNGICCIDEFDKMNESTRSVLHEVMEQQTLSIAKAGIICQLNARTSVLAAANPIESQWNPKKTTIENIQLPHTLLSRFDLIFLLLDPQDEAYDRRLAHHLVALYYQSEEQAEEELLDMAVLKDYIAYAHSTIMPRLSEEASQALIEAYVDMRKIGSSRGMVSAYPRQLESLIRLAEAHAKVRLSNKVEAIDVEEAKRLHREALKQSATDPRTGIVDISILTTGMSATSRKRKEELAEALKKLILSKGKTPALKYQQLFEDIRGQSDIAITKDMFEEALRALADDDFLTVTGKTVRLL

[5] = biological target: T5, HeLa cell extract proteins (Homo sapiens, UniProt P35232)
T5 construct: endogenous in cells; host or cells: HeLa cell extract
T5 sequence (P35232 1-272): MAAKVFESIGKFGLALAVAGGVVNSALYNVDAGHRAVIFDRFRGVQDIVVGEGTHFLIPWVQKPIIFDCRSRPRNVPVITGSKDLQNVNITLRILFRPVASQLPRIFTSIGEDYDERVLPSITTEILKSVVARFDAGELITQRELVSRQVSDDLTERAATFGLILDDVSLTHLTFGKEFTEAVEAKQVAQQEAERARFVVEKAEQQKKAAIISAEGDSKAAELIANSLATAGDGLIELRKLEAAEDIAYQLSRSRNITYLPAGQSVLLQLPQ

[6] = biological target: T6, HeLa cell extract proteins (Homo sapiens, UniProt P38646)
T6 construct: endogenous in cells; host or cells: HeLa cell extract

[7] = biological target: T7, HeLa cell extract proteins (Homo sapiens, UniProt P61160)
T7 construct: endogenous in cells; host or cells: HeLa cell extract

[8] = biological target: T8, HeLa cell extract proteins (Homo sapiens, UniProt P61769)
T8 construct: endogenous in cells; host or cells: HeLa cell extract

[9] = biological target: T9, HeLa cell extract proteins (Homo sapiens, UniProt Q00325)
T9 construct: endogenous in cells; host or cells: HeLa cell extract
T9 sequence (Q00325 50-362): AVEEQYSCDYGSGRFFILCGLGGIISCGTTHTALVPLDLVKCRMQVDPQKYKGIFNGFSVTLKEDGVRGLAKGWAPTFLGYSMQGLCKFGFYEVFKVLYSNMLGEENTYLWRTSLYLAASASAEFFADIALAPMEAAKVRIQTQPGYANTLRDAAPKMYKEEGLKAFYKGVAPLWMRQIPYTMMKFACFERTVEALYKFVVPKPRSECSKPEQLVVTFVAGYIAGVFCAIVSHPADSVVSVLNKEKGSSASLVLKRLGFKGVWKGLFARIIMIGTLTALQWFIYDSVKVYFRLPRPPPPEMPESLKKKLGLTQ

[10] = biological target: T10, HeLa cell extract proteins (Homo sapiens, UniProt Q13409)
T10 construct: endogenous in cells; host or cells: HeLa cell extract

[11] = biological target: T11, HeLa cell extract proteins (Homo sapiens, UniProt Q9HBL8)
T11 construct: endogenous in cells; host or cells: HeLa cell extract

[12] = biological target: T12, HeLa cell extract proteins (Homo sapiens, UniProt Q9NQR4)
T12 construct: endogenous in cells; host or cells: HeLa cell extract
T12 sequence (Q9NQR4 1-276): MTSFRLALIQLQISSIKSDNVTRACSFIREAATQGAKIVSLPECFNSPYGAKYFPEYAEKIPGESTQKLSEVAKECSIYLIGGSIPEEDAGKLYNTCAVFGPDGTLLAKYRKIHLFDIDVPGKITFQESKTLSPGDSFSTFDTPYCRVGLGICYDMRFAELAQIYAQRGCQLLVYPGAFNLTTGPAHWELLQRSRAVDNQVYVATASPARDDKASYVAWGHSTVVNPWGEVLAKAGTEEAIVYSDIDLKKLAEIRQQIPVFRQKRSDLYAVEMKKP

[13] = HeLa, protein B2M (CDNA FLJ57067, HIGHLY SIMILAR TO BETA-2-MICROGLOBULIN)

T10 sequence (Q13409 whole entry): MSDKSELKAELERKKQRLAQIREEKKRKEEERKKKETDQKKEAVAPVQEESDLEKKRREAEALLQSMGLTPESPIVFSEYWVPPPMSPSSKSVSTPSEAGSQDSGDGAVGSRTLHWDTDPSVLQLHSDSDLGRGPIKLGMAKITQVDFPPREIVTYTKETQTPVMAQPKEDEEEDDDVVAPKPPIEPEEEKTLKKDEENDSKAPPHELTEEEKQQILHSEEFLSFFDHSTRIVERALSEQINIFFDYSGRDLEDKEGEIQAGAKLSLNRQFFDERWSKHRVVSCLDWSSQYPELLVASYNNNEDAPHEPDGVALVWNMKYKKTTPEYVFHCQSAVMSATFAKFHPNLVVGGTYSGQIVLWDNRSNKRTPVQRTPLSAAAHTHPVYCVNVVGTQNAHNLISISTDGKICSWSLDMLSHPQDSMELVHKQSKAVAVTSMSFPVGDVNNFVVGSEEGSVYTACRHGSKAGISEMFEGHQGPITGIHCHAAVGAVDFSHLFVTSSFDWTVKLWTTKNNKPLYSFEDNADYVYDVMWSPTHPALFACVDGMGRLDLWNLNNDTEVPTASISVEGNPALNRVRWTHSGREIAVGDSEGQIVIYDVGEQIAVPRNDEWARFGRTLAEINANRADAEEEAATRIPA
T11 sequence (Q9HBL8 whole entry): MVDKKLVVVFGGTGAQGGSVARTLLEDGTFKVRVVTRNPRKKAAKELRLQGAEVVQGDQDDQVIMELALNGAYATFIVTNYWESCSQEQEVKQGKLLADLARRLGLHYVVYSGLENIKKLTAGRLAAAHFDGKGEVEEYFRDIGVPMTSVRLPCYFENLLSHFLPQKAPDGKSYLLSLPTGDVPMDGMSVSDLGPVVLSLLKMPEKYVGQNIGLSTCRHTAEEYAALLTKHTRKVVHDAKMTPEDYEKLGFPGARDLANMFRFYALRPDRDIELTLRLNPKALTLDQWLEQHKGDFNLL
T8 sequence (P61769 21-119): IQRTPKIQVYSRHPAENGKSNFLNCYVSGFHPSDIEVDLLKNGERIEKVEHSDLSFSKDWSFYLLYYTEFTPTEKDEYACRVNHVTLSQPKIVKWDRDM
T2 sequence (O15260 whole entry): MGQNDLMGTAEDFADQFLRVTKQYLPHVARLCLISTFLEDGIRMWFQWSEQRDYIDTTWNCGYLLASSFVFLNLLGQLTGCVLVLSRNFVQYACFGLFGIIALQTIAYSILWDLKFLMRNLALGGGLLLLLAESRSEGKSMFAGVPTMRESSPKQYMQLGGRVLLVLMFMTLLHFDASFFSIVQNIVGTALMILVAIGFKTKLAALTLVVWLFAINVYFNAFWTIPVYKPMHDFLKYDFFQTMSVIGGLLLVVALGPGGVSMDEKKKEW
T6 sequence (P38646 47-679): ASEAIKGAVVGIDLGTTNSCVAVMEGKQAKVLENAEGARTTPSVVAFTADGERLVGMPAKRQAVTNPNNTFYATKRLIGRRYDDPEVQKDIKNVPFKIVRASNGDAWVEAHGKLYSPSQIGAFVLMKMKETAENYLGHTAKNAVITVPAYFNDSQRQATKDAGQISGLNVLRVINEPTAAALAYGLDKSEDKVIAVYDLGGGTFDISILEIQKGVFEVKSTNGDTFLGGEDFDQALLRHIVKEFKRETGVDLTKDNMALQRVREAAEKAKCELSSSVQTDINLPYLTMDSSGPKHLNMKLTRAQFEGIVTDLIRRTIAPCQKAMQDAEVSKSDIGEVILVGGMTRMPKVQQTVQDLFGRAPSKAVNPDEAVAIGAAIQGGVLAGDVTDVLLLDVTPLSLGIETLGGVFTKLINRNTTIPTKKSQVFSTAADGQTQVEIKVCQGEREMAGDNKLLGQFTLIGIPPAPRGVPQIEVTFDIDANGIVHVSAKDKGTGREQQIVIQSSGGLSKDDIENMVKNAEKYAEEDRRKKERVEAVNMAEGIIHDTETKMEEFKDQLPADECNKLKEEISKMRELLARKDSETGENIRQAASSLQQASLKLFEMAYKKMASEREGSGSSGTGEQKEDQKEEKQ

SMILES	fold changes relative to vehicle control ([1]; HeLa, protein NME4)	fold changes relative to vehicle control ([2]; HeLa, captured protein SURF4)	fold changes relative to vehicle control ([3]; HeLa, protein TXN)	fold changes relative to vehicle control ([4]; protein MCM4, HeLa)	fold changes relative to vehicle control ([5]; HeLa, protein PHB)	fold changes relative to vehicle control ([6]; HeLa, captured protein HSPA9)	fold changes relative to vehicle control ([7]; HeLa, protein ACTR2)	fold changes relative to vehicle control [8, 13]	fold changes relative to vehicle control ([9]; HeLa, protein SLC25A3)	fold changes relative to vehicle control ([10]; HeLa, protein DYNC1I2)	fold changes relative to vehicle control ([11]; protein NMRAL1, HeLa)	fold changes relative to vehicle control ([12]; HeLa, captured protein NIT2)	fold changes relative to vehicle control ([2]; captured protein SURF4, HeLa)	fold changes relative to vehicle control ([3]; captured protein TXN, HeLa)	fold changes relative to vehicle control ([5]; protein PHB, HeLa)	fold changes relative to vehicle control ([6]; protein HSPA9, HeLa)	fold changes relative to vehicle control ([7]; protein ACTR2, HeLa)	fold changes relative to vehicle control ([8]; protein B2M, HeLa)	fold changes relative to vehicle control ([11]; captured protein NMRAL1, HeLa)	fold changes relative to vehicle control ([12]; protein NIT2, HeLa)	other results
Nc1nc2c(c(=O)[nH]1)N(C=O)C(CNc1ccc(C(=O)N[C@@H](CCC(=O)O)C(=O)O)cc1)CN2 (stereo partly drawn) [LEU, leucovorin]	1.04	0.86	1.05	0.87	0.95	1.05	0.99	1.24	0.98	0.9	1.01	1.04	–	–	–	–	–	–	–	–	–
Nc1nc2[nH]cc(CCc3ccc(C(=O)N[C@@H](CCC(=O)O)C(=O)O)cc3)c2c(=O)[nH]1 [PTX, pemetrexed]	–	–	–	–	–	–	–	–	–	–	–	–	–	–	–	–	–	–	–	–	fold changes relative to vehicle control [1]: 0.81; fold changes relative to vehicle control [2]: 0.9; fold changes relative to vehicle control [3]: 1.13; fold changes relative to vehicle control [4]: 0.96; fold changes relative to vehicle control [5]: 0.92; fold changes relative to vehicle control [6]: 0.97; fold changes relative to vehicle control [7]: 1.08; fold changes relative to vehicle control [8]: 1.51; fold changes relative to vehicle control [9]: 0.98; fold changes relative to vehicle control [10]: 0.94; fold changes relative to vehicle control [11]: 0.89; fold changes relative to vehicle control [12]: 0.89
CCCCCCOc1ccc(Cc2cnc(N)nc2N)cc1 [compound 1]	0.97	–	–	1.11	–	–	–	–	0.98	0.88	–	–	0.9	0.95	1.06	0.95	1.06	1.14	0.54	0.99	–
CCCCCCOc1cccc(Cc2cnc(N)nc2N)c1 [compound 2]	0.92	–	–	1.59	–	–	–	–	0.96	1.13	–	–	1	1.18	0.99	1.1	1.44	1.16	1.05	1.12	–
Nc1nc2cccc(-c3ccccc3)c2n1Cc1ccc(Cl)c(Cl)c1 [compound 3]	0.96	–	–	0.9	–	–	–	–	1	0.89	–	–	1.03	1.12	0.93	0.98	1.13	1.07	0.95	0.84	–
NCCOCCOCC(=O)Nc1nc2ncc(CNc3ccc(C(=O)NC(CCC(=O)O)C(=O)O)cc3)nc2c(=O)[nH]1 (stereo not drawn) [compound 6]	0.81	0.95	1.28	1.08	0.99	0.99	1.18	1.37	1.04	0.93	0.62	0.84	–	–	–	–	–	–	–	–	–
NCCCNc1ccc(C(=O)NC(CCC(=O)O)C(=O)O)cc1 (stereo not drawn) [compound 7]	0.98	0.92	1.33	0.93	0.96	0.97	0.97	1.31	1.11	0.95	1.03	0.96	–	–	–	–	–	–	–	–	–

— publication PMC6199744, “Development of Chemical Proteomics for the Folateome and Analysis of the Kinetoplastid Folateome” (ACS Infectious Diseases, 2018)
